Patent publication US8252737B2, “Antimicrobial peptides and methods of use” (priority 2004, dated 2012)
Converted amounts (≈) assume the structure as drawn. Read-outs that look alike come from different tables or passages of the source.

How the values were obtained:
[1] = test system: Staphylococcus aureus
[2] = test system: Pseudomonas aeruginosa strains; details: for Antimicrobial activity Fold: fold improvement in geometric mean MIC compared to V681; for MIC CP 204: strain CP 204
[3] = test system: Bacillus subtilis
[4] = test system: human red blood cells; assay: Hemolysis time study (0-8 hours, 8-500 μg/ml); details: 500 μg/ml, after 1 hour incubation
Procedure: The percent hemolysis of cells was determined spectrophotometrically by comparison with the complete hemolysis of cells in water.
[…] Peptide samples were diluted 2 fold in order to determine the concentration that produced no hemolysis. […] Hemoglobin release was determined spectrophotometrically at 562 nm. The hemolytic titer was the highest 2-fold dilution of the peptide that still caused release of hemoglobin from erythrocytes. The control for no release of hemoglobin was a sample of 1% erythrocytes without any peptide added. […] Peptide samples were diluted 2 fold in order to determine the concentration that produced no hemolysis. […] Hemoglobin release was determined spectrophotometrically at 570 nm. The hemolytic titer was the highest 2-fold dilution of the peptide that still caused release of hemoglobin from erythrocytes. The control for no release of hemoglobin was a sample of 1% erythrocytes without any peptide added.

[5] = CD temperature denaturation study of peptide V681; assay type: physicochemical; details: 50% TFE in 0.05% aq. TFA (pH 2); 50% of α-helical structure denatured
Procedure: We next used temperature profiling during RP-HPLC to determine the self-association ability of the various analogs of V681 which would occur through interaction of the non-polar faces of these amphipathic α-helices. […] In order to investigate the stability of V681 in a hydrophobic environment, we carried out a temperature denaturation study in solution, as monitored by circular dichroism spectroscopy. […]
CD Temperature Denaturation Study of Peptide V681—The native peptide V681 was dissolved in 0.05% aqueous TFA containing 50% TFE, pH 2, loaded into a 0.02 cm fused silica cell and peptide ellipticity scanned from 190 to 250 nm at temperatures of 5, 15, 25, 35, 45, 55, 65 and 80° C. […] ([θ]t−[θ]u)/([θ]5−[θ]u) was calculated and plotted against temperature in order to obtain the thermal melting profiles, where [θ]5 and [θ]u represent the molar ellipticity values for the fully folded and fully unfolded species, respectively. [θ]u was determined in the presence of 8M urea with a value of 1500 deg cm^2 dmol^−1 to represent a totally random coil state (31). The melting temperature (Tm) was calculated as the temperature at which the α-helix was 50% denatured (([θ]t−[θ]u)/([θ]5−[θ]u)=0.5) and the values were taken as a measure of α-helix stability.

[6] = methicillin-resistant clinical strain
[7] = geometric mean of six Pseudomonas aeruginosa clinical isolates

SMILES | MIC (μg/ml) S. aureus 623 methR [1, 6] | MIC (μg/ml) S. aureus 622 wt ([1]; wild type strain) | Antimicrobial activity Fold [2] | MIC CP 204 [2] | MIC (μg/ml) B. subtilis C971 wt [3] | MIC GM [2, 7] | MIC M 2 ([2]; strain M 2) | MIC PA 14 ([2]; strain PA 14) | MIC PAK ([2]; strain PAK) | MIC PAO 1 ([2]; strain PAO 1) | MIC WR 5 ([2]; strain WR 5) | other results
CC[C@H](C)[C@H](NC(=O)[C@H](C)NC(=O)[C@H](CCCCN)NC(=O)[C@H](CC(C)C)NC(=O)[C@H](C)NC(=O)[C@@H](NC(=O)[C@H](Cc1c[nH]cn1)NC(=O)[C@H](CC(C)C)NC(=O)[C@@H](NC(=O)[C@@H](NC(=O)[C@H](CCCCN)NC(=O)[C@@H](C)NC(=O)[C@H](C)NC(=O)[C@H](CO)NC(=O)[C@H](CCCCN)NC(=O)[C@H](Cc1ccccc1)NC(=O)[C@@H](NC(=O)[C@H](CCCCN)NC(=O)[C@H](CC(C)C)NC(=O)[C@H](Cc1ccccc1)NC(=O)[C@H](CO)NC(=O)[C@H](CCCCN)NC(=O)[C@H](Cc1c[nH]c2ccccc12)NC(=O)[C@H](CCCCN)NC(C)=O)[C@@H](C)O)[C@@H](C)O)C(C)C)[C@@H](C)O)C(=O)N[C@@H](CO)C(=O)N[C@@H](CO)C(N)=O [NAD] | 3.1 µg/mL (≈ 1.06 µM) | 1.6 µg/mL (≈ 0.545 µM) | 1.3 | 7.8 µg/mL (≈ 2.66 µM) | 3.1 µg/mL (≈ 1.06 µM) | – | – | – | – | – | – | MIC GM ([2]; strains): 22.1 µg/mL (≈ 7.53 µM); MIC M 2 ([2]; strains): 7.8 µg/mL (≈ 2.66 µM); MIC PA 14 ([2]; strains): 31.3 µg/mL (≈ 10.7 µM); MIC PAK ([2]; strains): 62.5 µg/mL (≈ 21.3 µM); MIC PAO 1 ([2]; strains): 15.6 µg/mL (≈ 5.32 µM); MIC WR 5 ([2]; strains): 62.5 µg/mL (≈ 21.3 µM)
CC[C@H](C)[C@H](NC(=O)[C@H](C)NC(=O)[C@H](CCCCN)NC(=O)[C@H](CC(C)C)NC(=O)[C@H](C)NC(=O)[C@@H](NC(=O)[C@H](Cc1cnc[nH]1)NC(=O)[C@H](CC(C)C)NC(=O)[C@@H](NC(=O)[C@@H](NC(=O)[C@H](CCCCN)NC(=O)[C@H](CCCCN)NC(=O)[C@H](C)NC(=O)[C@H](CO)NC(=O)[C@H](CCCCN)NC(=O)[C@H](Cc1ccccc1)NC(=O)[C@@H](NC(=O)[C@H](CCCCN)NC(=O)[C@H](CC(C)C)NC(=O)[C@H](Cc1ccccc1)NC(=O)[C@H](CO)NC(=O)[C@H](CCCCN)NC(=O)[C@H](Cc1c[nH]c2ccccc12)NC(=O)[C@H](CCCCN)NC(C)=O)[C@@H](C)O)[C@@H](C)O)C(C)C)[C@@H](C)O)C(=O)N[C@@H](CO)C(=O)N[C@@H](CO)C(N)=O [NKL] | – | – | 0.6 | 7.8 µg/mL (≈ 2.61 µM) | 3.1 µg/mL (≈ 1.04 µM) | 49.6 µg/mL (≈ 16.6 µM) | 31.3 µg/mL (≈ 10.5 µM) | 62.5 µg/mL (≈ 20.9 µM) | 125.0 µg/mL (≈ 41.8 µM) | 31.3 µg/mL (≈ 10.5 µM) | 250.0 µg/mL (≈ 83.6 µM) | MIC (μg/ml) S. aureus 622 wt [1]: 12.5 µg/mL (≈ 4.18 µM); MIC (μg/ml) S. aureus 623 methR [1]: 12.5 µg/mL (≈ 4.18 µM); MIC (μg/ml) CP 204 ([2]; Pseudomonas aeruginosa clinical isolate CP 204): 7.8 µg/mL (≈ 2.61 µM); MIC (μg/ml) M 2 ([2]; Pseudomonas aeruginosa clinical isolate M 2): 31.3 µg/mL (≈ 10.5 µM); MIC (μg/ml) PA 14 ([2]; Pseudomonas aeruginosa clinical isolate PA 14): 62.5 µg/mL (≈ 20.9 µM); MIC (μg/ml) PAK ([2]; Pseudomonas aeruginosa clinical isolate PAK): 125.0 µg/mL (≈ 41.8 µM); MIC (μg/ml) PAO 1 ([2]; Pseudomonas aeruginosa clinical isolate PAO 1): 31.3 µg/mL (≈ 10.5 µM); MIC (μg/ml) WR 5 ([2]; Pseudomonas aeruginosa clinical isolate WR 5): 250.0 µg/mL (≈ 83.6 µM); MIC (μg/ml) GM ([2]; geometric mean of the MIC values for the 6 Pseudomonas aeruginosa clinical isolates): 49.6 µg/mL (≈ 16.6 µM)
CC[C@H](C)[C@H](NC(=O)[C@H](C)NC(=O)[C@H](CCCCN)NC(=O)[C@H](CC(C)C)NC(=O)[C@H](C)NC(=O)[C@@H](NC(=O)[C@H](Cc1c[nH]cn1)NC(=O)[C@H](CC(C)C)NC(=O)[C@@H](NC(=O)[C@@H](NC(=O)[C@H](CCCCN)NC(=O)[C@@H](NC(=O)[C@H](C)NC(=O)[C@H](CO)NC(=O)[C@H](CCCCN)NC(=O)[C@H](Cc1ccccc1)NC(=O)[C@@H](NC(=O)[C@H](CCCCN)NC(=O)[C@H](CC(C)C)NC(=O)[C@H](Cc1ccccc1)NC(=O)[C@H](CO)NC(=O)[C@H](CCCCN)NC(=O)[C@H](Cc1c[nH]c2ccccc12)NC(=O)[C@H](CCCCN)NC(C)=O)[C@@H](C)O)C(C)C)[C@@H](C)O)C(C)C)[C@@H](C)O)C(=O)N[C@@H](CO)C(=O)N[C@@H](CO)C(N)=O [Peptide V681, reference compound] | 6.3 µg/mL (≈ 2.13 µM) | 3.1 µg/mL (≈ 1.05 µM) | 1.0 | 15.6 µg/mL (≈ 5.27 µM) | 3.1 µg/mL (≈ 1.05 µM) | 27.8 µg/mL (≈ 9.39 µM) | 15.6 µg/mL (≈ 5.27 µM) | 62.5 µg/mL (≈ 21.1 µM) | 31.3 µg/mL (≈ 10.6 µM) | 15.6 µg/mL (≈ 5.27 µM) | 62.5 µg/mL (≈ 21.1 µM) | hemolysis of human red blood cells [4]: 100%; transition temperature Tm [5]: 79.3 °C
